Here are results for one molecule from patent publication US5095038A, “Carbocyclic compounds useful as leukotriene antagonists” (ICI Americas Inc., priority 1989, dated 1992).

Each structure is given as a SMILES string.

The target of this test is T1, LTD4 /E4 receptors (Cavia porcellus, UniProt Q2NNR5).
T1 construct: membrane fractions, containing the LTD4 /E4 receptors, are prepared from guinea-pig lung parenchyma; from tissue; host or cells: guinea-pig lung parenchyma membrane fractions
T1 sequence (Q2NNR5 1-340): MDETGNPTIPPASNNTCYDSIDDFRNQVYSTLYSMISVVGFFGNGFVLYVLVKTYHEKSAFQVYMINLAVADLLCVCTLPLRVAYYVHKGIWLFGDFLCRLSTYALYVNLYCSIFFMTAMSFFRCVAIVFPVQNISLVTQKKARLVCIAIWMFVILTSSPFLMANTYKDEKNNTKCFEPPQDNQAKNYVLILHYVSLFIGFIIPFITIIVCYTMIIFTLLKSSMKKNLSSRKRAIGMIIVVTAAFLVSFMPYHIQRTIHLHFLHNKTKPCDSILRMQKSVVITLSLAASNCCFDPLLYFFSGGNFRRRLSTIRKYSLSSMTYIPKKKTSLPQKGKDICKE
Briefly: receptor-ligand binding assay (3H-LTD4). The settings on record: membrane fractions from guinea-pig lung parenchyma, 1nM 3H-LTD4, 30 minutes at 22° C.; Ki from IC50 by Cheng-Prusoff. The method, then: According to this procedure, membrane fractions, containing the LTD4 /E4 receptors, are prepared from guinea-pig lung parenchyma and incubated for 30 minutes at 22° C. with 1nM ^3 H-LTD4 in the absence or presence of tested antagonist. Specific binding, determined under conditions that prevent enzymatic metabolism of ^3 H-LTD4, is the net result of total ^3 H-LTD4 binding minus nonspecific binding determined in the presence of 1-2000 fold excess unlabelled LTD . Each assay is done in duplicate and results (Ki values) are typically a mean of several such determinations in individual receptor batches.
The % inhibition by a tested antagonist, relative to control binding (vehicle alone), is expressed as a fraction of log[antagonist] concentration (in molar units) and the half-maximal inhibition (IC50) determined by computerized non-linear least-square analysis. The binding constant (Ki) is then calculated from IC50 by the Cheng-Prusoff equation: [formula] where [L] is ^3 H-LTD4 concentraton and Kd is the affinity constant of LTD4 to this receptor, determined separately for each batch. (Biochem. Pharmacol. 22: 3099-3108, 1973).

As a reminder, the Ki is a dissociation constant, usually derived from enzyme kinetics or from competition with a known ligand. A high value points to weaker binding. Molecule `CCC(C)CNC(=O)c1ccc2cccc(Cc3ccc(C(=O)NS(=O)(=O)c4ccccc4C)cc3OC)c2c1` (stereo not shown) [Example 10, 3-Methoxy-4-[7-(2-methylbutylcarbamoyl)naphth-1-ylmethyl]-N-(2-methylphenylsulfonyl)benzamide] gave a Ki of 3.16 nM.
